Here are results for 17 compounds from patent US5436260A, “Angiotensin II receptor antagonists” (Warner-Lambert Company, priority 1994, dated 1995).

Where a name gives a salt, the structure may show the parent alone. A value given as a limit tells only on which side of the number the result lay.

The first test has as its target T1, AT1 receptor (Rattus norvegicus, UniProt P25095).
T1 construct: rat liver membranes; from tissue; host or cells: rat liver membranes
T1 sequence (P25095 1-359): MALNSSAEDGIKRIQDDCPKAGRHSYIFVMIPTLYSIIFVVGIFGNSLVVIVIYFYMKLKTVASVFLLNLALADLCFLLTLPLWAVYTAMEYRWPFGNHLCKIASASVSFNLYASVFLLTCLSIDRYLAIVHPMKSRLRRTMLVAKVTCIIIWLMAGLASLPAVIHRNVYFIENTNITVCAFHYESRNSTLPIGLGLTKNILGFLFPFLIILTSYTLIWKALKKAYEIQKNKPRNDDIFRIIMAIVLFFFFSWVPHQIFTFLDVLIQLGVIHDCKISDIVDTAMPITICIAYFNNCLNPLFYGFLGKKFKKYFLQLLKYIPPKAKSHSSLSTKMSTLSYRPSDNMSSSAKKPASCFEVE
Kind of test: [^3 H]angiotensin II binding to rat liver membranes (AT1 test). The following applies: inhibition of [^3 H]angiotensin II binding. In a few lines: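 Inhibition of [^3 H]angiotensin II binding to rat liver membranes, run by the Dudley et al. 1990 method.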
Broadly, the IC50 is the concentration needed to halve the response being measured. Higher therefore signals weaker potency in that assay. Consider `CCCCc1ncc(/C=C2/C(=O)N(CCCC)C(=O)N2CCCC)n1Cc1ccc(C(=O)O)cc1` [Example 73, Z-4-[[2-butyl-5-[(1,3-dibutyl-2,5-dioxo-4-imidazolidinylidene)methyl]-1H-imidazol-1-yl]methyl]benzoic acid], for which the IC50 is 1.3 nM.
On the same count and under the same terms, the same measure for `CCCCc1ncc(/C=C(/C(=O)O)N(CCCC)C(=O)NCOC)n1Cc1ccc(C(=O)OC)cc1` [Example 98]: 377 nM; for `CCCCc1ncc(/C=C2/C(=O)N(CCCC)C(=O)N2Cc2nccn2Cc2ccccc2)n1Cc1ccc(C(=O)OC)cc1` [Example 99]: 135 nM.
Same read-out and setting: to `CCCCc1ncc(/C=C2/C(=O)N(CO)C(=O)N2Cc2csc(C)n2)n1Cc1ccc(C(=O)OC)cc1` [Example 101, Methyl Z-4-[[2-butyl-5-[[1-(hydroxymethyl)-3-[(2-methyl-4-thiazolyl)methyl]-2,5-dioxo-4-imidazolidinylidene]methyl]-1H-imidazol-1-yl]methyl]benzoatedihydrochloride] belongs 35.7 nM; to `CCCCc1ncc(/C=C2/C(=O)N(CCCC)C(=O)N2Cc2ccc(-c3ccccc3)cc2)n1Cc1ccc(C(=O)OC)cc1` [Example 102, Methyl Z-4-[[5-[[3-[(1,1'-biphenyl)-4-ylmethyl]-1-butyl-2,5-dioxo-4-imidazolidinylidene]methyl]-2-butyl-1H-imidazol-1-yl]methyl]benzoate], over 1000 nM; to `CCCCc1ncc(/C=C2/C(=O)N(CCCC)C(=O)N2CC(=O)c2cccs2)n1Cc1ccc(C(=O)OC)cc1` [Example 103, Methyl Z-4-[[2-butyl-5-[[1-butyl-2,5-dioxo-3-[2-oxo-2-(2-thienyl)ethyl]-4-imidazolidinylidene]methyl]-1H-imidazol-1-yl]methyl]benzoate monochloride], 120 nM.
As to `CCCCc1ncc(/C=C2/C(=O)N(CCCC)C(=O)N2CC(=O)c2ccccc2)n1Cc1ccc(C(=O)OC)cc1` [Example 104, Methyl Z-4-[[2-butyl-5-[[1-butyl-2,5-dioxo-3-(2-oxo-2-phenylethyl)-4-imidazolidinylidene]methyl]-1H-imidazol-1-yl]methyl]benzoate monohydrochloride], the IC50 is over 1000 nM.
Compound `CCCCc1ncc(/C=C2/C(=O)N(Cc3cccs3)C(=O)N2Cc2cccs2)n1Cc1ccc(C(=O)O)cc1` [Example 105, Z-4-[[2-Butyl-5-[[2,5-dioxo-1,3-bis(2-thienylmethyl)-4-imidazolidinylidene]methyl]-1H-imidazol-1-yl]methyl]benzoic acid] displayed an IC50 of 1.47 nM. That is a single-digit nanomolar value.
The same measure, in the same setting: to `CCCCc1ncc(/C=C2/C(=O)N(CCCC)C(=O)N2Cc2ccno2)n1Cc1ccc(C(=O)OC)cc1` [Example 106, Methyl Z-4-[[2-butyl-5-[[1-butyl-3-(5-isoxazolyl-methyl)-2,5-dioxo-4-imidazolidinylidene]methyl]-1H-imidazol-1-yl]methyl]benzoate monohydrochloride] belongs 10.1 nM; to `CCCCc1ncc(/C=C2\NC(=O)N(CCCC(F)(F)F)C2=O)n1Cc1ccc(C(=O)OC)cc1` [Example 107, Methyl Z-4-[[2-butyl-5-[[2,5-dioxo-4,4,4,-(trifluorobutyl)-4-imidazolidinylidene]methyl]-1H-imidazol-1-yl]methyl]benzoate], 1450 nM; to `CCCCc1ncc(/C=C2/C(=O)N(CCCC)C(=O)N2Cc2cc(C)on2)n1Cc1ccc(C(=O)OC)cc1` [Example 108, Methyl Z-4-[[2-butyl-5-[[1-butyl-3-[(5-methyl-3-isoxazolyl)methyl]-2,5-dioxo-4-imidazolidinylidene]methyl]-1H-imidazol-1-yl]methyl]benzoate], 8.47 nM.
The compound `CCCCc1ncc(/C=C2/C(=O)N(CC)C(=O)N2Cc2csc(C)n2)n1Cc1ccc(C(=O)OC)cc1` [Example 109, Methyl Z-4-[[2-butyl-5-[[1-ethyl-3-[(2-methyl-4-thiazolyl)methyl]-2,5-dioxo-4-imidazolidinylidene]methyl]-1H-imidazol-1-yl]methyl]benzoate dihydrochloride] registered an IC50 of 11.1 nM.
Still for that read-out and setting: to `CCCCc1ncc(/C=C2/C(=O)N(CCCC)C(=O)N2Cc2csc(C)n2)n1Cc1ccc(C(=O)OC)cc1Cl` [Example 110, Methyl Z-4-[[2-butyl-5-[[1-butyl-3-[(2-methyl-4-thiazolyl)methyl]-2,5-dioxo-4-imidazolidinylidene[methyl]-1H-imidazol-1-yl]methyl]-3chloro benzoatemonohydrochloride] belongs 2.47 nM; to `CCCCc1ncc(/C=C2/C(=O)N(CCCC(F)(F)F)C(=O)N2Cc2csc(C)n2)n1Cc1ccc(C(=O)OC)cc1` [Example 111, Methyl Z-4-[[2-Butyl-5-[[3-[(2-methyl-4-thiazoyl)methyl]-2,5-dioxo-1-(4,4,4-trifluorobutyl)-4-imidazolidinylidene]methyl]-1H-imidazol-1-yl]methyl]benzoate dihydrochloride], 70 nM.
The same measure, in the same setting: to `CCCCc1ncc(/C=C2/C(=O)N(CCCC)C(=O)N2CCCC(F)(F)F)n1Cc1ccc(C(=O)OC)cc1` [Example 112, Methyl Z-4-[[2-butyl-5-[[1-butyl-2,5-dioxo-3-(4,4,4-trifluorobutyl)-4-imidazolidinylidene]methyl]-1H-imidazol-1-yl]methyl]benzoate dihydrochloride] belongs 6.44 nM.
Still for that read-out and setting: to `CCCCc1ncc(/C=C2/C(=O)N(CCCC(F)(F)F)C(=O)N2CCCC(F)(F)F)n1Cc1ccc(C(=O)OC)cc1` [Example 113, dihydrochloride] belongs 18.3 nM.

In another test the test system is renal hypertensive rats. Kind of test: blood pressure lowering in renal hypertensive rats (2-kidney, 1-clip Goldblatt model). In kind it is in vivo. Particulars: single oral dose of 30 mg/kg, renal hypertensive rat. On the procedure:
Finally, the compounds of Formula I were tested in vivo for blood pressure lowering effects in renal hypertensive rats (2-kidney, 1-clip Goldblatt model) according to the method described by S. Sen, et al, in Hypertension 1979;1:427-34 and in Clin. Soc. 1979;57:53-62.
Illustrative of the in vivo antihypertensive activity for compounds of Formula I or Ia is the data for Example 1a. This compound lowers blood pressure by ≥50 mm Hg and is efficacious for more than 24 hours with a single oral dose of 100 mg/kg in the renal hypertensive rat. Furthermore Example 73 lowers blood pressure by ≥30 mm Hg and is efficacious for more than 24 hours with a single oral dose of 30 mg/kg in the renal hypertensive rat.
As for `CCCCc1ncc(/C=C2/C(=O)N(CCCC)C(=O)N2CCCC)n1Cc1ccc(C(=O)O)cc1` [Example 73, Z-4-[[2-butyl-5-[(1,3-dibutyl-2,5-dioxo-4-imidazolidinylidene)methyl]-1H-imidazol-1-yl]methyl]benzoic acid], the “efficacious for (duration)” value is on record as “more than 24 hours” and the “lowers blood pressure by” value is at least 30 mm Hg.

Staying with this test, now noted: single oral dose of 100 mg/kg, renal hypertensive rat.
In the case of `CCCCc1ncc(/C=C2\C(=O)NC(=O)N2CCCC)n1Cc1ccc(C(=O)O)cc1` [Example 1a, (E)-4-[[2-Butyl-5-[(3-butyl-2,5-dioxo-4-imidazolidinylidene)methyl]-1H-imidazol-1-yl]methyl]benzoic acid], the “lowers blood pressure by” value is on record as at least 50 mm Hg.
